Source: patent US12636285B2 (ViiV Healthcare Company, priority 2019, dated 2026)
Where a name gives a salt, the structure may show the parent alone.

Experiments:
[1] = Drug interaction studies with oral rilpivirine
[2] = Established and other potentially significant drug interactions (Table 5); settings: trial-based or predicted
[3] = Drug interaction studies with oral cabotegravir; settings: cabotegravir 30 mg once daily; No Effect = 1.00
Solubility in water = type: physicochemical
Source text: The cabotegravir tablet contains cabotegravir, as cabotegravir sodium. […] The tablet film-coating contains hypromellose, polyethylene glycol, and titanium dioxide.

[4] = rilpivirine 150 mg once daily, No Effect = 1.00
[5] = rilpivirine 25 mg once daily, No Effect = 1.00
[6] = rilpivirine 75 mg once daily, No Effect = 1.00

With `CC(=O)Nc1ccc(O)cc1` [Acetaminophen] the “Geometric Mean Ratio of coadministered drug AUC with/without EDURANT” value [1, 4] was 0.91 and the “Geometric Mean Ratio of coadministered drug Cmax with/without EDURANT” value [1, 4] was 0.97.
In the case of `C#C[C@]1(O)CC[C@H]2[C@@H]3CCC4=CC(=O)CC[C@@H]4[C@H]3CC[C@@]21C` [Norethindrone], the “Geometric Mean Ratio of coadministered drug AUC with/without EDURANT” value [1, 5] is reported as 0.89, the “Geometric Mean Ratio of coadministered drug Cmax with/without EDURANT” value [1, 5] is reported as 0.94 and the “Geometric Mean Ratio of coadministered drug Cmin with/without EDURANT” value [1, 5] is reported as 0.99.
For `CO[C@H]1/C=C/O[C@@]2(C)Oc3c(C)c(O)c4c(c3C2=O)C2=NC3(CCN(CC(C)C)CC3)NC2=C(NC(=O)/C(C)=C\C=C\[C@H](C)[C@H](O)[C@@H](C)[C@@H](O)[C@@H](C)[C@H](OC(C)=O)[C@@H]1C)C4=O` [Rifabutin], the “Effect on Concentration” value ([2]; with antimycobacterial rifabutin) was “↔Rifabutin”.
With `CO[C@H]1/C=C/O[C@@]2(C)Oc3c(C)c(O)c4c(O)c(c(/C=N/N5CCN(C)CC5)c(O)c4c3C2=O)NC(=O)/C(C)=C\C=C\[C@H](C)[C@H](O)[C@@H](C)[C@@H](O)[C@@H](C)[C@H](OC(C)=O)[C@@H]1C` [Rifampin] the “Geometric Mean Ratio of coadministered drug AUC with/without EDURANT” value [1, 4] was 0.99 and the “Geometric Mean Ratio of coadministered drug Cmax with/without EDURANT” value [1, 4] was 1.02.
With Lopinavir/ritonavir the “Geometric Mean Ratio of coadministered drug AUC with/without EDURANT” value [1, 4] was 0.99, the “Geometric Mean Ratio of coadministered drug Cmax with/without EDURANT” value [1, 4] was 0.96 and the “Geometric Mean Ratio of coadministered drug Cmin with/without EDURANT” value [1, 4] was 0.89. The “Geometric Mean Ratio of rilpivirine AUC with/without coadministered drug” value [1, 4] was 0.99, the “Geometric Mean Ratio of rilpivirine Cmax with/without coadministered drug” value [1, 4] was 0.96 and the “Geometric Mean Ratio of rilpivirine Cmin with/without coadministered drug” value [1, 4] was 0.89.
For `Cc1ncc2n1-c1ccc(Cl)cc1C(c1ccccc1F)=NC2` [Midazolam], the “Geometric Mean Ratio of AUC of coadministered drug with/without cabotegravir” value [3] was 1.10 and the “Geometric Mean Ratio of Cmax of coadministered drug with/without cabotegravir” value [3] was 1.09.
In the case of `C#C[C@]1(O)CC[C@H]2[C@@H]3CCc4cc(O)ccc4[C@H]3CC[C@@]21C` [Ethinyl estradiol], the “Geometric Mean Ratio of coadministered drug AUC with/without EDURANT” value [1, 5] is reported as 1.14, the “Geometric Mean Ratio of coadministered drug Cmax with/without EDURANT” value [1, 5] is reported as 1.17 and the “Geometric Mean Ratio of coadministered drug Cmin with/without EDURANT” value [1, 5] is reported as 1.09. The “Geometric Mean Ratio of AUC of coadministered drug with/without cabotegravir” value [3] was 1.02, the “Geometric Mean Ratio of Cmax of coadministered drug with/without cabotegravir” value [3] was 0.92 and the “Geometric Mean Ratio of Cτ or C24 of coadministered drug with/without cabotegravir” value [3] was 1.00.
With `CC(C)OC(=O)OCOP(=O)(CO[C@H](C)Cn1cnc2c(N)ncnc21)OCOC(=O)OC(C)C` [Tenofovir disoproxil fumarate] the “Geometric Mean Ratio of coadministered drug AUC with/without EDURANT” value [1, 4] was 1.23, the “Geometric Mean Ratio of coadministered drug Cmax with/without EDURANT” value [1, 4] was 1.19 and the “Geometric Mean Ratio of coadministered drug Cmin with/without EDURANT” value [1, 4] was 1.24.
For `CCCc1nn(C)c2c(=O)[nH]c(-c3cc(S(=O)(=O)N4CCNCC4)ccc3OCC)nc12` [N-desmethyl-sildenafil], the “Geometric Mean Ratio of coadministered drug AUC with/without EDURANT” value [1, 6] was 0.92 and the “Geometric Mean Ratio of coadministered drug Cmax with/without EDURANT” value [1, 6] was 0.90.
With `CO[C@H]1/C=C/O[C@@]2(C)Oc3c(C)c(O)c4c(O)c(c(/C=N/N5CCN(C)CC5)c(O)c4c3C2=O)NC(=O)/C(C)=C\C=C\[C@H](C)[C@H](O)[C@@H](C)[C@@H](O)[C@@H](C)[C@H](O)[C@@H]1C` [25-desacetylrifampin] the “Geometric Mean Ratio of coadministered drug AUC with/without EDURANT” value [1, 4] was 0.91 and the “Geometric Mean Ratio of coadministered drug Cmax with/without EDURANT” value [1, 4] was 1.00.
For `CCC(=O)C(CC(C)N(C)C)(c1ccccc1)c1ccccc1` (stereo not drawn) [Methadone], the “rilpivirine Cmin with/without coadministered drug” value ([1]; rilpivirine 25 mg once daily, comparison based on historic controls) was “↔^b” and the “Effect on Concentration” value ([2]; with narcotic analgesic methadone) was “↓Methadone”.
In the case of `CCCc1nn(C)c2c(=O)[nH]c(-c3cc(S(=O)(=O)N4CCN(C)CC4)ccc3OCC)nc12` [Sildenafil], the “Geometric Mean Ratio of coadministered drug AUC with/without EDURANT” value [1, 6] is reported as 0.97 and the “Geometric Mean Ratio of coadministered drug Cmax with/without EDURANT” value [1, 6] is reported as 0.93.
In the case of `CN(C)C(=N)N=C(N)N` [Metformin], the “Geometric Mean Ratio of coadministered drug AUC with/without EDURANT” value [1, 5] is reported as 0.97 and the “Geometric Mean Ratio of coadministered drug Cmax with/without EDURANT” value [1, 5] is reported as 1.02.
In the case of `C[C@H]1CO[C@@H]2Cn3cc(C(=O)NCc4ccc(F)cc4F)c(=O)c(O)c3C(=O)N12` [Cabotegravir sodium], the solubility in water (Solubility in water) is reported as “slightly soluble”.
With `C[C@H]1O[C@@H](O[C@H]2[C@@H](O)C[C@H](O[C@H]3[C@@H](O)C[C@H](O[C@H]4CC[C@@]5(C)[C@H](CC[C@@H]6[C@@H]5C[C@@H](O)[C@]5(C)[C@@H](C7=CC(=O)OC7)CC[C@]65O)C4)O[C@@H]3C)O[C@@H]2C)C[C@H](O)[C@@H]1O` [Digoxin] the “Geometric Mean Ratio of coadministered drug AUC with/without EDURANT” value [1, 5] was 0.98 and the “Geometric Mean Ratio of coadministered drug Cmax with/without EDURANT” value [1, 5] was 1.06.
For `Cc1nnc(C(=O)NC(C)(C)c2nc(C(=O)NCc3ccc(F)cc3)c(O)c(=O)n2C)o1` [Raltegravir], the “Geometric Mean Ratio of coadministered drug AUC with/without EDURANT” value [1, 5] was 1.09, the “Geometric Mean Ratio of coadministered drug Cmax with/without EDURANT” value [1, 5] was 1.10 and the “Geometric Mean Ratio of coadministered drug Cmin with/without EDURANT” value [1, 5] was 1.27.
With `O=c1[nH]cnc2c1ncn2[C@H]1CC[C@@H](CO)O1` [Didanosine] the “Geometric Mean Ratio of coadministered drug AUC with/without EDURANT” value [1, 4] was 1.12 and the “Geometric Mean Ratio of coadministered drug Cmax with/without EDURANT” value [1, 4] was 0.96.
In the case of `C#C[C@]1(O)CC[C@H]2[C@@H]3CCC4=CC(=O)CC[C@@H]4[C@H]3CC[C@@]21CC` [Levonorgestrel], the “Geometric Mean Ratio of AUC of coadministered drug with/without cabotegravir” value [3] is reported as 1.12, the “Geometric Mean Ratio of Cmax of coadministered drug with/without cabotegravir” value [3] is reported as 1.05 and the “Geometric Mean Ratio of Cτ or C24 of coadministered drug with/without cabotegravir” value [3] is reported as 1.07.
With `CC(C)c1c(C(=O)Nc2ccc(O)cc2)c(-c2ccccc2)c(-c2ccc(F)cc2)n1CC[C@@H](O)C[C@@H](O)CC(=O)O` [4-hydroxy-atorvastatin] the “Geometric Mean Ratio of coadministered drug AUC with/without EDURANT” value [1, 4] was 1.23 and the “Geometric Mean Ratio of coadministered drug Cmax with/without EDURANT” value [1, 4] was 1.28.
For `CC(=O)N1CCN(c2ccc(OCC3COC(Cn4ccnc4)(c4ccc(Cl)cc4Cl)O3)cc2)CC1` (stereo not drawn) [Ketoconazole], the “Geometric Mean Ratio of coadministered drug AUC with/without EDURANT” value [1, 4] was 0.76, the “Geometric Mean Ratio of coadministered drug Cmax with/without EDURANT” value [1, 4] was 0.85 and the “Geometric Mean Ratio of coadministered drug Cmin with/without EDURANT” value [1, 4] was 0.34.
